Test results from US20220298146A1, “HETEROCYCLIC DERIVATIVE AND USE THEREOF” (Transthera Sciences (Nanjing), Inc., priority 2019, published 2022).

Assays:
[1] = target: T1, H1299 cell pMer (Homo sapiens, UniProt Q12866); assay: Inhibitory activity on cell pMer (H1299 cells, Human MerMab stimulation, Western Blot); assay type: cell-based; details: Human MerMab 200 ng/mL, tested at 0.37, 1.1, 3.3 and 10 nM
T1 construct: endogenous in cells; host or cells: H1299
T1 sequence (Q12866 21-999): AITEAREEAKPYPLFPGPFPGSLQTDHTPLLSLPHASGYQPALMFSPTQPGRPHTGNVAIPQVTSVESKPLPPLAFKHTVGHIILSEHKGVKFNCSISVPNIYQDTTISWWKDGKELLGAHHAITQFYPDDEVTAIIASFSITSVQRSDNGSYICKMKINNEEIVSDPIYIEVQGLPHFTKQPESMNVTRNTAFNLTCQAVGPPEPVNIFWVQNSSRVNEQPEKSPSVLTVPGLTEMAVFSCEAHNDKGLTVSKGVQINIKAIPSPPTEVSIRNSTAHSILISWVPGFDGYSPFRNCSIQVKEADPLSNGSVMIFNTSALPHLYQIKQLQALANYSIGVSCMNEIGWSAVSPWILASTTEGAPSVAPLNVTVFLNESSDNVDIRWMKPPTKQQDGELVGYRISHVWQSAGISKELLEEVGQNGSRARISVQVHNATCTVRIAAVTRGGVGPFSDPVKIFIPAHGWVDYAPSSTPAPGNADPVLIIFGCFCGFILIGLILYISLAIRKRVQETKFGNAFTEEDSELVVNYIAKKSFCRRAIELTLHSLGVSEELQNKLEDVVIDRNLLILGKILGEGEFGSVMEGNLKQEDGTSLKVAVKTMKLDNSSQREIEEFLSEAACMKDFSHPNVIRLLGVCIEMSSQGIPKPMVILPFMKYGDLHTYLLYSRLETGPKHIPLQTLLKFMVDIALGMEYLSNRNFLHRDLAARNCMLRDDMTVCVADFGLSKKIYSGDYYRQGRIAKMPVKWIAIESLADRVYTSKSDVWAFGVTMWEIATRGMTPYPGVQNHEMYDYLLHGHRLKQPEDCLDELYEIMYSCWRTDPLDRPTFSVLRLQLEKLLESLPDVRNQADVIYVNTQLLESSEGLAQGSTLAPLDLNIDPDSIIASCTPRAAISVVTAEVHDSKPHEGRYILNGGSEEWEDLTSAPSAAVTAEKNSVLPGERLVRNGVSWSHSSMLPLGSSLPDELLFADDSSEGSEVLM
Experimental: H1299 is a non-small cell lung cancer cell.
Test samples: the compounds of the present invention, having structures shown above.
Test instruments: protein electrophoresis apparatus (made by Bio Rad), membrane transfer apparatus (made by Bio Rad), exposure apparatus (made by Tanon), and CO2 cell incubator (made by Thermo).
H1299 cells were inoculated into a 6-well plate (containing 10% FBS 1640 medium, 5×10^5 cells per well) and adherently cultivated at 37° C. and 5% CO2 for 18 h. The cells were starved overnight, and compounds with different concentrations were added. The compounds had final concentrations of 0.37 nM, 1.1 nM, 3.3 nM and 10 nM, with DMSO having a final concentration of 1‰. There was a medium containing 10‰ DMSO in the negative control well. The cells were incubated at 37° C. and 5% CO2 for 60 min, and then Human MerMab (R&D, final concentration: 200 ng/mL) was added to each well. The cells were further incubated for 60 min, and then the total protein of the cells was extracted for Western Blot experiment. Gray analysis was performed on the results with Image J software, and IC50 values were calculated with GraphPad 5.0 software. The inhibitory activities of the compounds on cell pMer were detected.

[2] = target: T2, Mer (h) (Homo sapiens, UniProt Q12866); assay: Enzymatic activity assay, Mer (h) kinase, [γ-33P]-ATP; assay type: biochemical; details: 10 μM [γ-33P]-ATP, 40 min, room temperature; read-out: Inhibitory Activity on Mer (h), IC50
T2 construct: purchased
T2 sequence (Q12866 21-999): T1 sequence (Q12866 21-999)
Experimental: Test samples: the compounds of the present invention, having structures and preparation methods shown above.
(1) Preparation of Compound Stock Solutions
Compounds were each dissolved in 100% DMSO to prepare stock solutions with a maximum concentration of 500 μM.
(2) Preparation of Compound Working Solutions
The compound stock solutions were diluted to final concentrations of 500 μM, 150 μM, 50 μM, 15 μM, 5 μM, 1.5 μM, 0.5 μM, 0.15 μM and 0.05 μM to prepare compound working solutions (50×).
(3) Preparation of different enzymatic reaction solutions
Mer (h) enzyme was dissolved in a mixture of 8 mM MOPS (pH 7.0), 0.2 mM EDTA, 30 mM NaCl and 250 μM GGMEDIYFEFMGGKKK to prepare an enzyme solution with a final concentration of 3.1 nM. An Mg/ATP mixture of 10 mM magnesium acetate and 10 μM [γ-^33P]-ATP was used to activate the enzymatic reaction.
The compound working solutions were added to a 384-well plate, with final concentrations of 10000 nM, 3000 nM, 1000 nM, 300 nM, 100 nM, 30 nM, 10 nM, 3 nM and 1 nM, respectively, and then different enzymatic reaction solutions prepared according to the above conditions were added. The reaction solutions were incubated at room temperature for 40 min, and then 0.5% phosphoric acid solutions were added to terminate the reaction. 10 μL of the reaction solution was added dropwise to P30 filter paper which was washed 4 times with a 0.425% phosphoric acid solution and once with methanol and then placed in a scintillation counter for detection. Gray analysis was performed on the results with Image J software, and IC50 values were calculated with GraphPad 5.0 software.

| IC50 [1] [nM] | IC50 [2] [nM] | Structure (SMILES) |
| --- | --- | --- |
| 3.3 to 10 | 8 | CC(C)n1cc(-c2ccc(F)cc2)c(=O)c(C(=O)Nc2ccc(Oc3ccnc(N)c3Cl)nc2)n1 [Compound 13, N-(6-((2-amino-3-chloropyridin-4-yl)oxy)pyridin-3-yl)-5-(4-fluorophenyl)-1-isopropyl-4-oxo-1,4-dihydropyridazine-3-carboxamide] |
| 1.1 | 6 | Nc1nccc(Oc2cnc(NC(=O)c3nn(C4CC4)cc(-c4ccc(F)cc4)c3=O)nc2)c1Cl [Compound 18, N-(5-((2-amino-3-chloropyridin-4-yl)oxy)pyrimidin-2-yl)-5-(4-fluorophenyl)-1-cyclopropyl-4-oxo-1,4-dihydropyridazine-3-carboxamide] |
| 10 | 18 | Nc1nccc(Oc2ccc(NC(=O)c3nn(C4CC4)cc(-c4ccc(F)cc4)c3=O)cn2)c1Cl [Compound 19, N-(6-((2-amino-3-chloropyridin-4-yl)oxy)pyridin-3-yl)-1-cyclopropyl-5-(4-fluorophenyl)-4-oxo-1,4-dihydropyridazine-3-carboxamide] |
| 0.37 | 4 | C=CCn1cc(-c2ccc(F)cc2)c(=O)c(C(=O)Nc2ccc(Oc3ccnc(N)c3Cl)cn2)n1 [Compound 35, 1-allyl-N-(5-((2-amino-3-chloropyridin-4-yl)oxy)pyridin-2-yl)-5-(4-fluorophenyl)-4-oxo-1,4-dihydropyridazine-3-carboxamide] |

Continued, compound first:

| Structure (SMILES) | IC50 [1] [nM] | IC50 [2] [nM] |
| --- | --- | --- |
| CC(C)n1cc(-c2ccc(F)cc2)c(=O)c(C(=O)Nc2ccc(Oc3ccnc(N)c3Cl)cn2)n1 [Compound 11, N-(5-((2-amino-3-chloropyridin-4-yl)oxy)pyridin-2-yl)-5-(4-fluorophenyl)-1-isopropyl-4-oxo-1,4-dihydropyridazine-3-carboxamide] | 1.1 | 9 |
| CC(C)n1cc(-c2ccc(F)cc2)c(=O)c(C(=O)Nc2ncc(Oc3ccnc(N)c3Cl)cn2)n1 [Compound 12, N-(5-((2-amino-3-chloropyridin-4-yl)oxy)pyrimidin-2-yl)-5-(4-fluorophenyl)-1-isopropyl-4-oxo-1,4-dihydropyridazine-3-carboxamide] | 1.1 | 8 |
| Nc1nccc(Oc2ccc(NC(=O)c3nn(C4CC4)cc(-c4ccc(F)cc4)c3=O)nc2)c1Cl [Compound 17, N-(5-((2-amino-3-chloropyridin-4-yl)oxy)pyridin-2-yl)-1-cyclopropyl-5-(4-fluorophenyl)-4-oxo-1,4-dihydropyridazine-3-carboxamide] | < 1.1 | 2 |
| Cn1cc(-c2ccc(F)cc2)c(=O)c(C(=O)Nc2ccc(Oc3ccnc(N)c3Cl)cn2)n1 [Compound 33, N-(5-((2-amino-3-chloropyridin-4-yl)oxy)pyridin-2-yl)-5-(4-fluorophenyl)-1-methyl-4-oxo-1,4-dihydropyridazine-3-carboxamide] | 3.3 | 3 |
| C=CCn1cc(-c2ccc(F)cc2)c(=O)c(C(=O)Nc2ncc(Oc3ccnc(N)c3Cl)cn2)n1 [Compound 37] | 3.3 | 7 |
| C=CCn1cc(-c2ccc(F)cc2)c(=O)c(C(=O)Nc2ccc(Oc3ccnc(N)c3Cl)nc2)n1 [Compound 39, 1-allyl-N-(6-((2-amino-3-chloropyridin-4-yl)oxy)pyridin-3-yl)-5-(4-fluorophenyl)-4-oxo-1,4-dihydropyridazine-3-carboxamide] | 3.3 to 10 | 3 |
